Experimental data reported in PMC5384962, “First-in-human studies of seletalisib, an orally bioavailable small-molecule PI3Kδ inhibitor for the treatment of immune and inflammatory diseases” (European Journal of Clinical Pharmacology, 2017).

What was measured:
[1] = Study-1 Part-A safety/tolerability (adverse events), single doses; conditions: for Deaths: Study-1 Part-A
Experimental: Study-1 (Part-A), comprised single doses of seletalisib (1, 5, 10 and 15 mg) administered to healthy subjects using an alternating panel approach (Table 1). Panel 1 consisted of 17 subjects and panel 2 of 18 subjects. In each panel subjects were randomised to one of three sequences and received different ascending doses of seletalisib or placebo over three (panel 1) or two (panel 2) periods (Table 1). In the third period of panel 1, a preliminary assessment of food effect was made, all subjects received seletalisib 5 mg 30 min after a high-fat, high-calorie meal.
(§1) Adverse events (AEs), serious AEs (SAEs), routine clinical laboratory parameters, vital signs and ECGs were monitored throughout the study periods and for ≤7 days post-administration of final-dose of seletalisib/placebo. The potential for seletalisib to cause gastrointestinal (GI) tract adverse effects was assessed by careful monitoring of subject reports of AEs such as abdominal pain, bloating, nausea, vomiting and alteration of bowel function (e.g. diarrhoea, constipation or bleeding). A formal safety review was conducted before each dose escalation. In Study-1 (Part-B), the potential for seletalisib to interfere with insulin signalling was assessed by monitoring blood glucose and C-peptide levels as part of the standard laboratory tests and by performance of oral glucose tolerance tests, measuring glucose and C-peptide levels, pre-dose and during exposure in all cohorts.
(§2) In each study, the primary population for analysis was the full analysis set (FAS), which comprised all subjects who had received ≥1 dose of seletalisib or placebo. PK analysis was performed on the PK per-protocol set (PK-PPS), which was a subset of the FAS consisting of subjects with no important protocol deviations likely to affect PK variables who received seletalisib; subjects who received placebo were excluded from this analysis. In Study-1 and Study-2, sample sizes of 57 and 36 subjects, respectively, were considered sufficient to permit assessment of the safety and tolerability of seletalisib and were not based on statistical considerations of power and sample size. In Study-1 (Part-A), a panel size of 15 subjects was selected to achieve good estimates of the PK/PD parameters.

[2] = Study-1 Part-B safety/tolerability (adverse events, laboratory, OGTT), multiple doses; conditions: for Deaths: Study-1 multiple doses
Experimental: In Study-1 (Part-B), a total of 27 subjects were enrolled, two cohorts of healthy subjects (n = 9 in each) and one cohort of subjects with mild-to-moderate psoriasis (n = 9). Subjects were randomised (2:1) to ascending multiple doses of seletalisib (5, 8 and 15 mg) or placebo for 14 days.
as §1, §2

[3] = system: basophil degranulation; experiment: Study-1 ex vivo basophil degranulation (anti-IgE-driven CD63 expression, whole blood); type: in vivo, human; conditions: Study-1 Part-A, single doses; very high variability
Experimental: Subjects were assessed for basophil degranulation following stimulation at multiple time points, as described in Online Resource S1.
Degranulation of basophils was determined in whole blood by monitoring increased cell surface CD63 expression utilizing flow cytometry in an ex vivo stimulation assay driven by anti-IgE (Study-1) or anti-FcεR1 (Study-2). Briefly, blood was collected in lithium-heparin tubes (BD Biosciences, Oxford, UK) and stimulated with IgE or FcεRI cross-linking antibodies (eBiosciences, Hatfield, UK) for 12 min at 37°C. Following red blood cell lysis by addition of BD FACSlyse (BD Biosciences, Oxford, UK), samples were centrifuged and the supernatant discarded. The cell pellet was washed in PBS and re-suspended in fixative (5% formaldehyde in PBS). CD63 expression was determined on basophils (side-scatter low, CD123+HLA-DR-) and detected by flow cytometry using the BD antibody cocktail containing CD63, CD123, and anti-HLA-DR.

[4] = design: method as in ref 15 = [15]; 15. UCB data on file: UCB1446368-in vivo-rep; November 2011; UCB BioPharma sprl Belgium and DMPK10_062 UCB1446368 iv 1mpk male HW rat BDC; August 2010; UCB BioPharma sprl Belgium; conditions: preclinical animal studies; cited from earlier work

[O-][n+]1cccc(-c2nc3c(Cl)cccc3cc2[C@@H](Nc2ncnc3cccnc23)C(F)(F)F)c1 [Seletalisib, seletalisib]
Deaths ([1]; seletalisib total): 0 n (%) | Deaths ([1]; single dose 1 mg): 0 n (%) | Deaths ([1]; single dose 5 mg): 0 n (%) | Deaths ([1]; single dose 5 mg fed): 0 n (%) | Deaths ([1]; single dose 10 mg): 0 n (%) | Deaths ([1]; single dose 15 mg): 0 n (%) | Any AE ([1]; human, in vivo): 13 (39.4) n (%) | Discontinuations due to AEs ([1]; human, in vivo): 0 n (%) | Drug-related AEs ([1]; human, in vivo): 2 (6.1) n (%) | Headache ([1]; human, in vivo): 4 (12.1) n (%) | Serious AEs ([1]; human, in vivo): 0 n (%) | Severe AEs ([1]; human, in vivo): 0 n (%) | number of moderate-intensity AEs ([1]; in vivo): three | Deaths ([2]; 5 mg, 14 days): 0 n (%) | Deaths ([2]; 8 mg, 14 days): 0 n (%) | Deaths ([2]; 15 mg, 14 days (psoriasis cohort)): 0 n (%) | Deaths ([2]; seletalisib total): 0 n (%) | glucose handling versus baseline (oral glucose tolerance test) ([2]; in vivo): no significant alteration | neutrophil counts ([2]; in vivo): Modest reductions | number of AEs of potential GI disturbance ([2]; in vivo): Six | number of moderate AEs ([2]; in vivo): three | inhibition of basophil degranulation compared with placebo [3]: inhibition of basophil degranulation was observed in all seletalisib-treated groups | route of elimination [4]: primarily eliminated by combined hepatic metabolism and biliary excretion
